Experimental data from the supplement of paper PMC11451515.

Key:
NOMO1 [1] = experiment: cell viability relative to DMSO control; higher = less cytotoxic; details: RPMI 5 mM glucose + 10% FBS, 48 h
Method in brief: (§1)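 Library compounds in DMSO were pin-dosed in an 11-point threefold series (47 μM to 0.79 nM) onto leukemia cells in 1536-well plates (5 μl). Plates held 500 cells/well of NOMO1 or SEM or 1000 cells/well of P12-Ichikawa, each adapted for at least four passages in each medium. Luminescence was read with CellTiter-Glo One after 48 h at 37°C. Viability means the per-plate percentage relative to DMSO wells, using cell-free wells as background.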

P12-Ichikawa [2] = experiment: as above; details: 48 h
Method in brief: as §1

SEM cells [3] = experiment: as above; details: 48 h
Method in brief: as §1

NOMO1 [4] = experiment: AUC of viability dose-response curve (% viability x log10 dose units); higher = less sensitive; details: 48 h
Method in brief: (§2)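 Leukemia cells adapted to each medium were seeded in 1536-well plates (500 or 1000 cells/well). They were dosed with library compounds in DMSO at 11 threefold doses, 47 μM to 0.79 nM, for 48 h at 37°C. CellTiter-Glo One luminescence was normalised per plate to DMSO and cell-free wells. Area under the curve was integrated by trapezoidal rule over log10 doses on a four-parameter log-logistic fit; curves exceeding full viability were scaled and curves failing quality control removed.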

SEM cells [5] = experiment: as above; details: 48 h
Method in brief: as §2

P12-Ichikawa [6] = experiment: as above; details: 48 h
Method in brief: as §2

COc1ccc(Cn2ccc3ccc(C(=O)NO)cc32)cc1
Details | AUC of viability dose-response curve | cell viability [%]
NOMO1 [1], 0.000781 µM | – | 107
NOMO1 [1], 0.00234 µM | – | 121
NOMO1 [1], 0.00702 µM | – | 115
NOMO1 [1], 0.0211 µM | – | 128
NOMO1 [1], 0.0632 µM | – | 124
NOMO1 [1], 0.19 µM | – | 123
NOMO1 [1], 0.569 µM | – | 130
NOMO1 [1], 1.71 µM | – | 137
NOMO1 [1], 5.12 µM | – | 124
NOMO1 [1], 15.4 µM | – | 130
NOMO1 [1], 46.1 µM | – | 128
NOMO1 [4], HPLM + 10% dialyzed FBS | 446 | –
NOMO1 [4], RPMI 5 mM glucose + 10% FBS | 461 | –
NOMO1 [4], RPMI 5 mM glucose + 10% dialyzed FBS | 469 | –
SEM cells [5], HPLM + 10% dialyzed FBS | 464 | –
SEM cells [5], RPMI 5 mM glucose + 10% FBS | 460 | –
SEM cells [5], RPMI 5 mM glucose + 10% dialyzed FBS | 462 | –

cell viability [%]
Details | HPLM + 10% dialyzed FBS | RPMI 5 mM glucose + 10% FBS | RPMI 5 mM glucose + 10% dialyzed FBS
P12-Ichikawa [2], 0.000781 µM | 116 | 108 | 116
P12-Ichikawa [2], 0.00234 µM | 121 | 114 | 116
P12-Ichikawa [2], 0.00702 µM | 119 | 120 | 116
P12-Ichikawa [2], 0.0211 µM | 87.4 | 65.3 | 79.9
P12-Ichikawa [2], 0.0632 µM | 128 | 134 | 126
P12-Ichikawa [2], 0.19 µM | 123 | 125 | 126
P12-Ichikawa [2], 0.569 µM | 120 | 130 | 129
P12-Ichikawa [2], 1.71 µM | 119 | 120 | 119
P12-Ichikawa [2], 5.12 µM | 113 | 120 | 114
P12-Ichikawa [2], 15.4 µM | 90.3 | 83.5 | 87
P12-Ichikawa [2], 46.1 µM | 44 | 52.3 | 55.6
SEM cells [3], 0.000781 µM | 102 | 103 | 99.6
SEM cells [3], 0.00234 µM | 107 | 115 | 110
SEM cells [3], 0.00702 µM | 120 | 122 | 115
SEM cells [3], 0.0211 µM | 120 | 98.1 | 76.3
SEM cells [3], 0.0632 µM | 123 | 109 | 114
SEM cells [3], 0.19 µM | 113 | 129 | 118
SEM cells [3], 0.569 µM | 127 | 127 | 112
SEM cells [3], 1.71 µM | 118 | 127 | 110
SEM cells [3], 5.12 µM | 112 | 109 | 112
SEM cells [3], 15.4 µM | 114 | 109 | 111
SEM cells [3], 46.1 µM | 58.5 | 49.3 | 38.5

O=C(NCc1ccccc1)[C@H](Cc1ccccc1)NC(=O)[C@H]1O[C@@H]1C(=O)NCCc1ccc(O)cc1
AUC of viability dose-response curve
Details | NOMO1 [4] | P12-Ichikawa [6] | SEM cells [5]
HPLM + 10% dialyzed FBS | 431 | 468 | 464
RPMI 5 mM glucose + 10% FBS | 459 | 461 | 463
RPMI 5 mM glucose + 10% dialyzed FBS | 425 | 463 | 453

Cl.O[C@@H](CNC[C@H](O)[C@H]1CCc2cc(F)ccc2O1)[C@@H]1CCc2cc(F)ccc2O1
AUC of viability dose-response curve
Details | NOMO1 [4] | P12-Ichikawa [6] | SEM cells [5]
HPLM + 10% dialyzed FBS | 439 | 465 | 450
RPMI 5 mM glucose + 10% FBS | 446 | 441 | 444
RPMI 5 mM glucose + 10% dialyzed FBS | 415 | 448 | 455
